In brackets after ≈: the same amount, converted by molar mass. Activity calls are given as the source filed them. The rule behind the calls is not given here.
How the values were obtained:
Type in all cases: functional
[1] = system: Mycolicibacterium smegmatis; assay: Antimycobacterial activity against DDS sensitive Mycobacterium smegmatis ATCC 607 […]
[2] = system: Mycobacterium tuberculosis; assay: Antitubercular activity against Mycobacterium tuberculosis infected in mouse assessed as reduction in microbial load at 2 to 3 mg ip, pretreated for 48 to 72 hrs followed by microbial infection and subsequent compound dosing at 48 to 72 hrs post-infection measured 24 to 32 days post-infection relative to control; design: scale not given: the % may be the effect or the level left
[3] = system: Mycobacterium tuberculosis; assay: Antimycobacterial activity against Mycobacterium tuberculosis H37Rv by BACTEC radiometric growth assay
[4] = system: Mycobacterium tuberculosis; assay: Antitubercular activity against Mycobacterium tuberculosis H37Rv ATCC 27294 assessed as growth inhibition at 6.25 ug/ml by microplate alamar blue assay relative to control
[5] = system: Mycolicibacterium smegmatis; assay: Antimicrobial activity against Mycobacterium smegmatis ATCC 607
[6] = system: Mycolicibacterium smegmatis; assay: Antimycobacterial activity against DDS resistant Mycobacterium smegmatis ATCC 607 […]

## O=S(=O)(c1ccc(O)cc1)c1ccc(O)cc1
[1]
  MIC: 400 µg/mL (≈ 1600 µM)

## CC(C)(C)c1cc2c(OCCOCCOCCOCCOCCOCCOCCOCCOCCOCCOCCOCCO)c(c1)Cc1cc(C(C)(C)C)cc(c1OCCOCCOCCOCCOCCOCCOCCOCCOCCOCCOCCOCCO)Cc1cc(C(C)(C)C)cc(c1OCCOCCOCCOCCOCCOCCOCCOCCOCCOCCOCCOCCO)Cc1cc(C(C)(C)C)cc(c1OCCOCCOCCOCCOCCOCCOCCOCCOCCOCCOCCOCCO)Cc1cc(C(C)(C)C)cc(c1OCCOCCOCCOCCOCCOCCOCCOCCOCCOCCOCCOCCO)Cc1cc(C(C)(C)C)cc(c1OCCOCCOCCOCCOCCOCCOCCOCCOCCOCCOCCOCCO)Cc1cc(C(C)(C)C)cc(c1OCCOCCOCCOCCOCCOCCOCCOCCOCCOCCOCCOCCO)Cc1cc(C(C)(C)C)cc(c1OCCOCCOCCOCCOCCOCCOCCOCCOCCOCCOCCOCCO)C2
[2]
  Activity: 50 - 100%

## CCCCCCCCCC[S+]([O-])CCC(N)=O (stereo not given)
[3]
  MIC: 6.25 µg/mL (≈ 23.9 µM)

## CNc1ccc(S(=O)(=O)c2ccc(N)cc2)cc1
[1]
  MIC: 37.3 µg/mL (≈ 142 µM)

## CCCCCCCCC[S@+]([O-])CC(N)=O
[3]
  MIC: 25 µg/mL (≈ 107 µM)

## OCCOCCOCCOCCOCCOCCOc1c2cc(-c3ccccc3)cc1Cc1cc(-c3ccccc3)cc(c1OCCOCCOCCOCCOCCOCCO)Cc1cc(-c3ccccc3)cc(c1OCCOCCOCCOCCOCCOCCO)Cc1cc(-c3ccccc3)cc(c1OCCOCCOCCOCCOCCOCCO)Cc1cc(-c3ccccc3)cc(c1OCCOCCOCCOCCOCCOCCO)Cc1cc(-c3ccccc3)cc(c1OCCOCCOCCOCCOCCOCCO)Cc1cc(-c3ccccc3)cc(c1OCCOCCOCCOCCOCCOCCO)C2
[2]
  Activity: 20 - 50%

## CCCCCCCC[S+]([O-])CC(=O)O (stereo not given)
[3]
  MIC: > 25 µg/mL

## CCN(CC)c1ccc(S(=O)(=O)c2ccc(N)cc2)cc1
[1]
  MIC: > 164 µg/mL

## c1coc(-c2[nH]cnc3ncnc2-3)c1
[4]
  inhibition at 6.25 µg/mL: 6%

## Cl.Cl.OC[C@H]1O[C@@H](n2cnc3c(-c4cccs4)ncnc32)[C@H](O)[C@@H]1O
[5]
  MIC: 0.7 µM

## CCCCCCNc1ccc(S(=O)(=O)c2ccc(N)cc2)cc1
[1]
  MIC: > 360 µg/mL
[6]
  MIC: > 400 µg/mL

## Nc1ccc(S(=O)(=O)c2ccc(NO)cc2)cc1 [4-AMINO-4'-HYDROXAMINE-DIPHENYLSULPHONE]
[1]
  MIC: 18.1 µg/mL (≈ 68.5 µM)
[6]
  MIC: 3000 µg/mL (≈ 11400 µM)

## Nc1ccc(S(=O)(=O)c2ccc([N+](=O)[O-])cc2)cc1
[1]
  MIC: 34.4 µg/mL (≈ 124 µM)
[6]
  MIC: > 1200 µg/mL

## CC(C)(C)c1cc2c(O)c(c1)Cc1cc(C(C)(C)C)cc(c1OCCOCCOCCOCCOCCOCCOCCOCCOCCOCCOCCOCCO)Cc1cc(C(C)(C)C)cc(c1O)Cc1cc(C(C)(C)C)cc(c1OCCOCCOCCOCCOCCOCCOCCOCCOCCOCCOCCOCCO)Cc1cc(C(C)(C)C)cc(c1O)Cc1cc(C(C)(C)C)cc(c1OCCOCCOCCOCCOCCOCCOCCOCCOCCOCCOCCOCCO)Cc1cc(C(C)(C)C)cc(c1O)Cc1cc(C(C)(C)C)cc(c1OCCOCCOCCOCCOCCOCCOCCOCCOCCOCCOCCOCCO)C2
[2]
  Activity: 20 - 50%

## CCCCCCCC[S+]([O-])CC(=O)OCc1ccccc1 (stereo not given)
[3]
  MIC: 6.25 µg/mL (≈ 20.1 µM)

## Nc1ccc(S(=O)(=O)c2ccc(NCC(=O)O)cc2)cc1 [ACEDIASULFONE]
[1]
  MIC: 261 µg/mL (≈ 853 µM)
[6]
  MIC: > 2200 µg/mL

## C.CCCCCCCCC[S+]([O-])CC(N)=O (racemic)
[3]
  MIC: 25 µg/mL

## CC(C)(C)c1cc2c(O)c(c1)Cc1cc(C(C)(C)C)cc(c1OCCOCCOCCOCCOCCOCCO)Cc1cc(C(C)(C)C)cc(c1O)Cc1cc(C(C)(C)C)cc(c1OCCOCCOCCOCCOCCOCCO)Cc1cc(C(C)(C)C)cc(c1O)Cc1cc(C(C)(C)C)cc(c1OCCOCCOCCOCCOCCOCCO)Cc1cc(C(C)(C)C)cc(c1O)Cc1cc(C(C)(C)C)cc(c1OCCOCCOCCOCCOCCOCCO)C2
[2]
  Activity: 20 - 50%

## CC(=O)Nc1ccc(S(=O)(=O)c2ccc(NC(C)=O)c(Cl)c2)cc1
[3]
  MIC: > 25 µg/mL

## CCCCCCCCC[S@+]([O-])CC(=O)OC
[3]
  MIC: > 25 µg/mL

## CC[C@@H](CO)NCCN[C@@H](CC)CO [ETHAMBUTOL]
[3]
  MIC: 2 µg/mL (≈ 9.79 µM)

## OC[C@H]1O[C@@H](n2cnc3c(-c4cccs4)ncnc32)[C@H](O)[C@@H]1O
[4]
  inhibition at 6.25 µg/mL: 6%

## CCCCCC/C=C/S(=O)(=O)CC(N)=O
[3]
  MIC: 12.5 µg/mL (≈ 53.6 µM)

## Oc1c2cc(-c3ccccc3)cc1Cc1cc(-c3ccccc3)cc(c1O)Cc1cc(-c3ccccc3)cc(c1O)Cc1cc(-c3ccccc3)cc(c1O)Cc1cc(-c3ccccc3)cc(c1O)Cc1cc(-c3ccccc3)cc(c1O)Cc1cc(-c3ccccc3)cc(c1O)Cc1cc(-c3ccccc3)cc(c1O)C2
[2]
  Activity: 20 - 50%

## CCCCNc1ccc(S(=O)(=O)c2ccc(N)cc2)cc1
[1]
  MIC: 110 µg/mL (≈ 361 µM)
[6]
  MIC: > 650 µg/mL

## CC(C)(C)c1cc2c(O)c(c1)Cc1cc(C(C)(C)C)cc(c1O)Cc1cc(C(C)(C)C)cc(c1O)Cc1cc(C(C)(C)C)cc(c1O)C2
[2]
  Activity: inactive

## O.OC[C@H]1O[C@@H](n2cnc3c(-c4cccs4)ncnc32)[C@H](O)[C@@H]1O
[5]
  MIC: 1.75 µM

## OC[C@H]1O[C@@H](n2nnc3c(-c4cccs4)ncnc32)[C@H](O)[C@@H]1O
[5]; Mycolicibacterium smegmatis, ATCC 607, read-out: MIC
  MIC: 20 µM (≈ 6.71 µg/mL)

## OC[C@H]1O[C@@H](n2cnc3c(-c4ccco4)ncnc32)[C@H](O)[C@@H]1O
[4]
  inhibition at 6.25 µg/mL: 0%

## CCCCCCCCCCS(=O)(=O)CCC(N)=O
[3]
  MIC: > 25 µg/mL

## CCCCCCCCC[S@@+]([O-])CC(N)=O
[3]
  MIC: 25 µg/mL (≈ 107 µM)

## Nc1cccc(S(=O)(=O)c2cccc(N)c2)c1
[1]
  MIC: 806 µg/mL (≈ 3250 µM)

## CC(=O)Nc1ccc(S(=O)(=O)c2ccc(NC(C)=O)cn2)cc1
[3]
  MIC: 12.5 µg/mL (≈ 37.5 µM)

## CCOCCOCCS(=O)(=O)CC(N)=O
[3]
  MIC: > 25 µg/mL

## CCCCCCCCCCS(=O)(=O)C(C)C(N)=O (stereo not given)
[3]
  MIC: > 25 µg/mL

## Nc1ccc(S(=O)(=O)c2ccc(F)cc2)cc1
[1]
  MIC: 95 µg/mL (≈ 378 µM)
[6]
  MIC: > 1800 µg/mL

## C.CCCCCCCCC[S+]([O-])CC(=O)OC (racemic)
[3]
  MIC: > 25 µg/mL

## Nc1ccc(S(=O)(=O)c2ccc(NC=O)cc2)cc1
[1]
  MIC: 120 µg/mL (≈ 434 µM)
[6]
  MIC: > 400 µg/mL

Source: ChEMBL document CHEMBL4613212, “Insights of synthetic analogues of anti-leprosy agents” (Bioorg Med Chem, 2019)
